Assay results as given in patent US9339509B2, “Methods of use to orally and topically treat acne and other skin conditions by administering a 19-nor containing vitamin D analog with or without a retinoid” (Wisconsin Alumni Research Foundation, priority 2006, dated 2016).
“Also recorded” adds a separate entry of the source.

Assays:
Rhino mouse [1] = test: Comedolytic effect of topical application to the Rhino mouse (comedone area); format: in vivo; settings: for comedone area (FIG. 5): 30 vol % ethanol/70% propylene glycol; for comedone area relative to vehicle-treated group (FIG. 11): 72 h after final dose
Source text: (§1) Rhino mice were used to topically and orally test the compounds and compositions of the invention. The Rhino mouse is a well-established animal model used to study the comedolytic effects of anti-acne agents including retinoids. (See Boulcier M et al., Experimental Models in Skin Pharmacology, 1990, In Pharmacological Reviews 42:127-15). Mirshahpanah and Maibach, 2007, Cutaneous and Ocular Toxicology 26:195-202). The Rhino mouse model was used to study the therapeutic potential of 2-Methylene-19-nor-20(S)-1α-hydroxy-bishomopregnacalciferol (2MBisP), 19-Nor-26,27-dimethylene-20(S)-2-methylene-1α,25-dihydroxyvitamin D3 (CAGE-3), NEL, 24R-2MD2, Vit-III (17-20E), 2MPregna, 2MP, 20R-2MbisP, 2MTrisP, FF-44, FF-55, HPBS, VD-03 and atRA.
(§2) Animals and dose administration. Rhino mice 6-10 weeks old were dosed via the oral and/or topical route. In the majority of studies, the mice were dosed daily. In one topical study, the efficacy of daily versus intermittent (Monday/Wednesday/Friday) dosing was compared. The mice were weighed three times per week and doses were adjusted weekly based on body weight. The topical formulations were applied to the back of the animal in a maximum volume of 110 μL. The topical formulations were made by mixing the APIs with a topical carrier comprising 70 vol % propylene glycol and 30 vol % ethanol or 30 vol % propylene glycol and 70 vol % ethanol, as indicated. The topical vehicle control was the vehicle carrier solution matched to the formulation containing API and vehicle carrier.
(§3) The oral formulation was made by mixing the APIs with Wesson® soybean oil or NeoBee® oil. The oral dose was delivered to the back of the mouth of each mouse. Mice were sacrificed 4 hours after the final oral dose and 72 hours after the final topical dose. At sacrifice, the dorsal skin was collected for histological studies.
(§4) Comedolytic effect. The extent of the comedolytic effect (i.e., efficacy) was assessed by measuring the average area of the comedones, whereby the smaller the area, the larger the effect. The comedone area was determined by histological analysis of tissue sections based on a method developed in our lab (see FIG. 2). Skin was fixed overnight in 4% paraformaldehyde at 4 deg. C. with gentle agitation and dehydrated the next day into 100% methanol. Samples were embedded in paraffin and a total of nine 10 micron sections 150 microns apart were prepared from each Rhino mouse. Five of the nine sections were digitally imaged (6× magnification) for comedone analysis using Metamorph Imaging Software (trace function). The perimeter of each comedone on the images taken from the 5 sections was then traced using a Wacom Intuos 3 Graphics Tablet interfaced with the software. The number of pixels comprising the area of each individual comedone was obtained and transferred to an Excel spreadsheet, and the mean number of pixels per comedone was obtained for each Rhino mouse. For comedones that were completely healed (area=0) a pixel value approaching 0 (<10) was entered into the spreadsheet. The individual comedone area average for each mouse was then used to calculate the treatment group mean. Results in the figures are expressed in terms of mean±standard error of the mean.
Preparation of topical formulations containing 2MBisP, CAGE-3, 24R-2MD2, VitIII (17-20E), NEL, VD-03, 2MPregna, 2MP, 20R-2MBisP, 2MTrisP, FF-44, FF-55, and HPBS. Separate concentrated ethanolic stocks of 2MBisP, CAGE-3, 24R-2MD2, VitIII (17-20E) and NEL were diluted to a final concentration containing 70 vol % propylene glycol and 30 vol % ethanol or 30 vol % propylene glycol and 70 vol % ethanol as the excipient carrier system. The mixture was thoroughly mixed. The topical dosing formulation delivered the desired dosing amount of drug on a per kilogram body weight basis. A dose ranging from 100-110 μL in volume was administered to the back of the mouse. An average weight of 24 or 30 g/mouse was assumed in dose volume calculations. […]

Rhino mouse [2] = test: Comedolytic effect of oral administration to the Rhino mouse (comedone area); format: in vivo
Source text: as §1, §2, §3, §4
Preparation of oral dosing solutions containing 2MBisP, CAGE-3, 24R-2MD2, VitIII (17-20E) and NEL. Separate concentrated stocks of 2MBisP, CAGE-3, 24R-2MD2, VitIII (17-20E) and NEL were obtained in ethanol. The concentration was determined spectrophotometrically using a molar extinction coefficient=42,000 and a λmax=252.7. […] The final dose was delivered in ≦50 μL of oil.
Preparation of oral atRA dosing formulation. A concentrated stock solution containing atRA was prepared in dichloromethane. The atRA concentrated stock solution was diluted into ethanol. The concentration of atRA in that diluted stock solution was determined spectrophotometrically, whereby the molar extinction coefficient=45,200 and λmax=350. The purity of atRA was determined to be >99% by HPLC. […]

Rhino mouse [3] = test: Combination of oral atRA and topical 2MBisP in the Rhino mouse (comedone area, skin morphology); format: in vivo
Protocol: as §2, §3
as §4, with “the mean. […]” for “the mean.”
Preparation of oral atRA dosing formulation. […] The concentration of atRA in that diluted stock solution was determined spectrophotometrically, whereby the molar extinction coefficient=45,200 and λmax=350. The purity of atRA was determined to be >99% by HPLC. […]

[4] = tested on: retinoic acid receptors (RARs); settings: Repa J J et al., 1993; cited from earlier work
[5] = daily topical 3 weeks, 70 vol % ethanol/30 vol % propylene glycol, 220 nmole/kgBW/day

C=C1[C@H](O)CC(=C/C=C2\CCC[C@]3(C)C([C@@H](C)CC)CC[C@@H]23)C[C@H]1O (stereo partly drawn) [2MBisP, 2-methylene-19-nor-20(S)-1α-hydroxy-bishomopregnacalciferol]
response vs control in vivo at 0.022 µmol/kg (Rhino mouse [1]; Mus musculus, 504 h, daily topical ca. 3 weeks, 70 vol % ethanol/30 vol % propylene glycol, dose 22 nmol/kg, mean ± SEM, read-out: Comedone Area (% Vehicle)): 97 ± 9%
response vs control in vivo at 0.069 µmol/kg (Rhino mouse [1]; Mus musculus, 504 h, daily topical ca. 3 weeks, 70 vol % ethanol/30 vol % propylene glycol, dose 69 nmol/kg, mean ± SEM, read-out: Comedone Area (% Vehicle)): 127 ± 12%
response vs control in vivo at 0.217 µmol/kg (Rhino mouse [1]; Mus musculus, 504 h, daily topical ca. 3 weeks, 70 vol % ethanol/30 vol % propylene glycol, dose 217 nmol/kg, mean ± SEM, read-out: Comedone Area (% Vehicle)): 49 ± 3%
response vs control in vivo at 0.694 µmol/kg (Rhino mouse [1]; Mus musculus, 504 h, daily topical ca. 3 weeks, 70 vol % ethanol/30 vol % propylene glycol, dose 694 nmol/kg, mean ± SEM, read-out: Comedone Area (% Vehicle)): 35 ± 4%
response vs control in vivo at 2.187 µmol/kg (Rhino mouse [1]; Mus musculus, 504 h, daily topical ca. 3 weeks, 70 vol % ethanol/30 vol % propylene glycol, dose 2187 nmol/kg, mean ± SEM, read-out: Comedone Area (% Vehicle)): 32 ± 7%
comedone area (FIG. 5) (Rhino mouse [1]; daily topical 3 weeks, 220 nmole/kgBW/day): no effect
comedone area (FIG. 5) (Rhino mouse [1]; daily topical 3 weeks, 653 nmole/kgBW/day): near-maximal reduction in comedone area
comedone area (FIG. 7) (Rhino mouse [1]; daily topical 3 weeks, 70 vol % ethanol/30 vol % propylene glycol, 22 nmole/kgBW/day): no effect
comedone area relative to vehicle-treated group (FIG. 8, 9, 10) (Rhino mouse [1]; daily topical 3 weeks, 70 vol % ethanol/30 vol % propylene glycol, 217 nmole/kgBW/day): significant reduction in comedone area
comedone area (FIG. 7) (Rhino mouse [1]; [5]): significant reduction in comedone area
reduction in comedone area (FIG. 6) (Rhino mouse [1]; [5]): > 50%
comedone area (FIG. 6) (Rhino mouse [1]; daily topical 3 weeks, 70 vol % ethanol/30 vol % propylene glycol, 653 nmole/kgBW/day): greater reduction in comedone area as compared to the lower dose
comedone area relative to vehicle-treated group (FIG. 8) (Rhino mouse [1]; daily topical 3 weeks, 70 vol % ethanol/30 vol % propylene glycol, 694 nmole/kgBW/day): significant reduction in comedone area
comedone area relative to vehicle-treated group (FIG. 11) (Rhino mouse [1]; topical 217 nmole/kgBW daily (total of 22 doses), 70 vol % ethanol/30 vol % propylene glycol): significant reduction in comedone area
comedone area relative to vehicle-treated group (FIG. 11) (Rhino mouse [1]; topical 217 nmole/kgBW intermittently Monday, Wednesday, Friday (total of 10 doses), 70 vol % ethanol/30 vol % propylene glycol): significant reduction in comedone area
comedone area vs vehicle control (FIG. 3, FIG. 4) (Rhino mouse [1]; topical 3 weeks, 30 vol % ethanol/70 vol % propylene glycol, 5.4 μg/day (ca. 800 nmole/kgBW/day)): reduction in the comedone area; also recorded: reduced comedone area
potency in the reduction of comedone area relative to 20R-2MBisP (Rhino mouse [1]; topical, 70 vol % ethanol/30 vol % propylene glycol, more potent than the 20R compound): approximately ½
comedone area (FIG. 12) (Rhino mouse [2]; oral daily 24 days, 522 nmole/kgBW/day): reduction in the comedone area
comedone area vs vehicle control group (FIG. 15) (Rhino mouse [3]; 2MBisP alone topically 21 days (0.22 μmole/kgBW/day, 30 vol % ethanol/70 vol % propylene glycol) with oral vehicle 24 days): lacked significant efficacy
skin morphology, H&E sections (FIG. 16) (Rhino mouse [3]; female Rhino mice, 2MBisP alone topically 0.22 μmole/kgBW/day, 30% ethanol/70% propylene glycol): did not alter skin morphology significantly

CC1=C(/C=C/C(C)=C/C=C/C(C)=C\C(=O)O)C(C)(C)CCC1 [13-cis retinoic acid, 13-cis-retinoic acid]
binding to the RARs [4]: does not bind

CC1=C(/C=C/C(C)=C/C=C/C(C)=C/C(=O)O)C(C)(C)CCC1 [atRA, all-trans-retinoic acid, reference compound]
comedone size vs vehicle control (FIG. 2) (Rhino mouse [2]; oral, 3 weeks, 0.83 μmole/kgBW): insignificant reduction in comedone size
comedone size vs vehicle control (FIG. 2) (Rhino mouse [2]; oral, 3 weeks, 16.6 μmole/kgBW): maximal reduction in comedone size
comedone area, dose dependence (FIG. 2) (Rhino mouse [2]; oral, 3 weeks, various doses): dose-dependent reduction in comedone area
comedone area vs vehicle control group (FIG. 15) (Rhino mouse [3]; atRA alone orally 24 days (830 nmole/kgBW/day) with topical vehicle 21 days): lacked significant efficacy
skin morphology vs vehicle control, H&E sections (FIG. 16) (Rhino mouse [3]; female Rhino mice, atRA alone orally 830 nmole/kgBW/day in soybean oil): did not alter skin morphology significantly
